# Measured values reported in patent publication US10925851B2 (Regents of the University of Minnesota, priority 2018, dated 2021).
# Where “and” joins values, the source holds several entries; their conditions need not be identical. Identical values can stand only once. Like-named read-outs stand apart in the source and are kept apart here.
# Experiments:
# Aminopeptidase N (APN) = biological target: T1, Aminopeptidase N (APN) (Homo sapiens, UniProt P15144); test: Aminopeptidase N enzyme assay (Ala-AMC substrate, fluorescence); type: biochemical; conditions: for IC50: dose response, 3x dilutions from 100 μM; for inhibition at 10 µM: inhibitor 10 μM, read-out: APN @ 10 μM (percent inhibition)
# T1 construct: purchased R&D Systems
# Procedure: Single concentration studies at 10 μM: Aminopeptidase N assays were performed as described previously. Aminopeptidase N was purchased from R&D Systems. Amino-4-methylcoumarin (Ala-AMC) was purchased from Bachem. Briefly, 0.1 μg/μL APN was incubated with 1 μL of 1 mM inhibitor in 50 mM Tris buffer, pH 7.5, in 100 μL volume in a black 384-well plate in duplicate. The reaction was started with the addition of Ala-AMC substrate at a final concentration of 100 μM. The cleavage accumulation AMC was measured by exciting at 380 nm and reading the fluorescence at 460 nm on a Molecular Devices SpectraMax i3 plate reader for 20 min at room temperature. Percent inhibition is calculated in GraphPad Prism software using slopes in the linear range for each inhibitor at 10 μM.
# Dose-Response Studies for APN: Aminopeptidase N enzyme assays were performed as described previously.^26 Briefly, 0.1 μg/μL APN was incubated with 1 μL inhibitor in 50 mM Tris buffer, pH 7.5, in 50 μL volume in a black 384-well plate in duplicate. Compounds were tested at 3× dilutions from 100 μM final concentration. The reaction was started with the addition of Ala-AMC substrate at a final concentration of 100 μM. The accumulation of AMC was measured by exciting at 380 nm and reading the fluorescence at 460 nm on a Molecular Devices SpectraMax i3 plate reader for 30 min at room temperature. Steady state velocities were used to determine IC50 values by fitting the velocities vs. inhibitor concentration to the sigmoidal concentration-response curve (variable slope) using GraphPad Prism.
# Neprilysin (NEP) = biological target: T2, Neprilysin (NEP) (Homo sapiens, UniProt P08473); test: Neprilysin inhibition assay (Mca-[…](Dpn) FRET substrate); type: biochemical; conditions: for IC50: dose response, 3x dilutions from 100 μM; for inhibition at 10 µM: inhibitor 10 μM, read-out: NEP @ 10 μM (percent inhibition)
# T2 construct: purchased Enzo Life Sciences
# Procedure: Single concentration studies at 10 μM: Neprilysin inhibition assays were performed as described previously. The substrate Mca-[…](Dpn) and endopeptidase NEP were purchased from Enzo Life Sciences. […] Plate was mixed with a plate shaker at 1500 rpm for 30 seconds. The reaction was started with the addition of 6 μM of the FRET substrate and mixed for another 30 seconds at 1500 rpm. Mca fluorescence is quenched by Dpn until cleavage at Phe by NEP. The accumulation of the Mca was measured by exciting at 320 nm and reading the fluorescence at 405 nm on a Molecular Devices M5e plate reader for 40 minutes at room temperature. Percent inhibition is calculated in GraphPad Prism software using slopes in the linear range for each inhibitor at 10 μM.
# Dose-Response Studies for NEP: Neprilysin inhibition assays were performed as described previously. The substrate Mca-[…](Dpn) and endopeptidase NEP were purchased from Enzo Life Sciences. Briefly, 0.5 nM NEP was incubated with 0.5 μL inhibitor. Compounds were tested at 3× dilutions from 100 μM final concentration in 50 mM HEPES pH 6.5 in 50 μL total volume in a black 384-well plate. Plate was mixed with a plate shaker at 1500 rpm for 30 seconds. The reaction was started with the addition of 6 μM of the FRET substrate and mixed for another 30 seconds at 1500 rpm. Mca fluorescence is quenched by Dpn until cleavage at Phe by NEP. The accumulation of the Mca was measured by exciting at 320 nm and reading the fluorescence at 405 nm on a Molecular Devices M5e plate reader for 40 minutes at room temperature. Steady state velocities were used to determine IC50 values by fitting the velocities vs. inhibitor concentration to the sigmoidal concentration-response curve (variable slope) using GraphPad Prism.
# mice [1] = test: Combination therapy with morphine, isobolographic analysis in tail-flick assay; conditions: for Dose Reduction Index (DRI) Morphine: in combination with tosedostat, 50% efficacy; for ED50: Mus musculus, sc
# mice [2] = test: Co-administration of opioid antagonist naloxone in hot-plate and tail-flick assays; type: in vivo, mouse; conditions: naloxone s.c. 5 mg/Kg or i.c.v. 5 μg per mouse
# Procedure: Naloxone dissolved in saline was either administered subcutaneously (s.c.; dosage: 5 mg/Kg) via an injection to the interscapular skin, or it was given intracerebroventricularly (5 μg per mouse).
# Naloxone is a broad-spectrum opioid receptor antagonist. It is known to interact with, mu- (μ-), delta- (δ-), and kappa- (κ-) opioid receptors, with highest affinity for the μ receptors. […] Naloxone dissolved in saline was delivered subcutaneously (s.c.) via an injection to the interscapular skin.
# 5 mg/Kg naloxone dissolved in saline was administered subcutaneously (s.c.) via an injection to the interscapular skin. Analgesic efficacy for various time-points was determined in hot-plate and tail-flick assays as detailed above.
# T2 sequence (P08473 whole entry, species assumed): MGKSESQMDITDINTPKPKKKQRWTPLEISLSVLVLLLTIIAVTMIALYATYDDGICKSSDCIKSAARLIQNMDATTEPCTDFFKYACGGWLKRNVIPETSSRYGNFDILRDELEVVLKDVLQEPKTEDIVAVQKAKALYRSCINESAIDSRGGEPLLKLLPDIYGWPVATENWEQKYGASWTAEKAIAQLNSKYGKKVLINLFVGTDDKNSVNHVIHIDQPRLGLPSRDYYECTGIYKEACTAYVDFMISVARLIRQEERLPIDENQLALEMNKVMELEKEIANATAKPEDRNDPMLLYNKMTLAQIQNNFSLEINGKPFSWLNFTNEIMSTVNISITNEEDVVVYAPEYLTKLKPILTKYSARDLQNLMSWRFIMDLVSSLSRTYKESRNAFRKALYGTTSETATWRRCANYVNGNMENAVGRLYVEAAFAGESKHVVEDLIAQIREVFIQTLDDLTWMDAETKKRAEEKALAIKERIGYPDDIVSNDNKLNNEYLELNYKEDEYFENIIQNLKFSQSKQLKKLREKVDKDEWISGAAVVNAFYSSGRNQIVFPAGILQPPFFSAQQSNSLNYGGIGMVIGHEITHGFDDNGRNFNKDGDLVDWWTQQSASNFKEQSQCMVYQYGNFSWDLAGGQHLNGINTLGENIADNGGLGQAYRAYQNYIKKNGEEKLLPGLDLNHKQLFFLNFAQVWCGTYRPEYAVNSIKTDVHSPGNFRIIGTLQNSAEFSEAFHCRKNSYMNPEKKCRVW
# T1 sequence (P15144 whole entry): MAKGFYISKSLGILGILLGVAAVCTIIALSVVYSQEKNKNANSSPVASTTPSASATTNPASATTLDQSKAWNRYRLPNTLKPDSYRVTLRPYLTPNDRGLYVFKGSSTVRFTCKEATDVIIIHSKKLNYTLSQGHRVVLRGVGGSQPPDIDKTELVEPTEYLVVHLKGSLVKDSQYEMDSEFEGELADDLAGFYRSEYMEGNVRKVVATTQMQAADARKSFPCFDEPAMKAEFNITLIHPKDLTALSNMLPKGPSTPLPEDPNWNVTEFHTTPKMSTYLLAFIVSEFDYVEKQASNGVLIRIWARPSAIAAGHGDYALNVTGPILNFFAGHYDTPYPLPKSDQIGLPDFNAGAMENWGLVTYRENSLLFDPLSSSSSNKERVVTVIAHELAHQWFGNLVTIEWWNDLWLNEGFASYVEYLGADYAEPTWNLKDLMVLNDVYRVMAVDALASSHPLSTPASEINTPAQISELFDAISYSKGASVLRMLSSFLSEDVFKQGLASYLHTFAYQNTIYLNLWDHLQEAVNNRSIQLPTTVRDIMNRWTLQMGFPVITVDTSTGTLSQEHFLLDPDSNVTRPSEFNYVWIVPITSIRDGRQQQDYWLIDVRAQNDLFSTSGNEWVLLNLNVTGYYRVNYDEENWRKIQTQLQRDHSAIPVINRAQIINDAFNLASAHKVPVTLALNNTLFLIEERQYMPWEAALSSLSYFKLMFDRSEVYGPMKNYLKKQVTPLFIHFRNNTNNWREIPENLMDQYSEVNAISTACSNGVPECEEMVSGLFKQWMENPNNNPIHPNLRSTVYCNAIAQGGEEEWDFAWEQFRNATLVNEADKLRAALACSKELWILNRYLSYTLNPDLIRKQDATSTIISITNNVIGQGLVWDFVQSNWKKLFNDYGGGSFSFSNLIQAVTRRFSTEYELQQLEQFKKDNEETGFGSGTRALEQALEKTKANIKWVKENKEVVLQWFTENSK
SMILES,activity against APN (in words) (Aminopeptidase N (APN)),IC50 (Aminopeptidase N (APN)),activity against NEP (in words) (Neprilysin (NEP)),IC50 (Neprilysin (NEP)),inhibition at 10 µM (Neprilysin (NEP)),inhibition at 10 µM (Aminopeptidase N (APN)),further results
CNC(=O)[C@H](Cc1ccccc1)NC(=O)[C@H](CC(C)C)[C@H](CSc1cccs1)C(=O)NO [Batimastat],inhibit both APN and NEP,0.21 µM and 0.212 µM,inhibit both APN and NEP,4.48 µM,60%,,
CC(C)C[C@H](NC(=O)[C@@H](O)[C@H](N)Cc1ccccc1)C(=O)O [Bestatin],inhibiting only APN,,no activity against NEP,> 100 µM,0%,77.6%,
CN1CC[C@]23c4c5ccc(O)c4O[C@H]2[C@@H](O)C=C[C@H]3[C@H]1C5 [Morphine],,,,,,,"Dose Reduction Index (DRI) Morphine (mice [1]; 15 min): 4.47; Dose Reduction Index (DRI) Morphine (mice [1]; 30 min): 1.96; Dose Reduction Index (DRI) Morphine (mice [1]; 45 min): 2.43; Dose Reduction Index (DRI) Morphine (mice [1]; 60 min): 17.0; Dose Reduction Index (DRI) Morphine (mice [1]; 60 min, listed as morphine): 17; ED50 (mice [1]; 0.25 h, read-out: Morphine ED50 (±SEM)): 6.29 ± 12.7 mg/kg; ED50 (mice [1]; 0.5 h, read-out: Morphine ED50 (±SEM)): 3.52 ± 7.2 mg/kg; ED50 (mice [1]; 0.75 h, read-out: Morphine ED50 (±SEM)): 3.87 ± 2.04 mg/kg; ED50 (mice [1]; 1 h, read-out: ED50, given alone): 2.5 to 3 mg/kg; ED50 (mice [1]; 1 h, read-out: Morphine ED50 (±SEM)): 30 ± 204 mg/kg"
C=CCN1CC[C@]23c4c5ccc(O)c4O[C@H]2C(=O)CC[C@@]3(O)[C@H]1C5 [Naloxone],,,,,,,"effect on latency, naloxone only groups (mice [2]): no effect on latency"
O=C(O)CNC(=O)C(CS)Cc1ccccc1 (centres unmarked) [Thiorphan],no activity against APN,> 100 µM,inhibited only NEP,,90%,0%,
